Results from ChEMBL document CHEMBL1201862, “PubChem BioAssay data set” (2004).
The source made the active and inactive calls.

What was measured:
[1] = tested on: Streptococcus sp. 'group A'; assay: growth inhibition of control SK(-) GAS strain, dose response, counter-screen for streptokinase expression inhibitor project, luminescence, kanamycin, BacTiterGlo, confirmation (AID 1900); type: functional, organism-based
[2] = target: T1, Calpain-2 catalytic subunit (Sus scrofa, UniProt P43367); assay: pig calpain II inhibitor potency, dose response, biochemical, fluorogenic peptide substrate (AID 1420); type: functional
T1 sequence (P43367 whole entry): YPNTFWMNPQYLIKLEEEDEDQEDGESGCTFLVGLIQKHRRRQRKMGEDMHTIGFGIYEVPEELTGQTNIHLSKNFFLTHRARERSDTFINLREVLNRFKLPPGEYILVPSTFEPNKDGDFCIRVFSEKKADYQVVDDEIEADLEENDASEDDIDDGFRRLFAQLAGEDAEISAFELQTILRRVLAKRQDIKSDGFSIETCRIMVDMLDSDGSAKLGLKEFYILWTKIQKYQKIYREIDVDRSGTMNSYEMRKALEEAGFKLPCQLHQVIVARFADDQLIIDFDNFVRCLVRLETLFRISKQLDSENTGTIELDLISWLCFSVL

Streptococcus = assay: Group A Streptococcus viability loss, dose response, counter-screen for streptokinase expression inhibitor project, luminescence, BacTiterGlo (AID 1915); type: functional, organism-based;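 further: potency for reduction of bacterial viability or growth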
Protein Rev = Protein Rev (Human immunodeficiency virus type 1 group M subtype B (isolate HXB2)(HIV-1), UniProt P04618); assay: inhibitors of Rev binding to RRE RNA, dose response, biochemical, fluorescence polarization, HIV-1 (AID 434976); set-up: species or system Human immunodeficiency virus 1
[3] = target: Serine/threonine-protein phosphatase PP1-alpha catalytic subunit (Homo sapiens, UniProt P62136); assay: PP1 phosphatase inhibitors, dose response, biochemical, fluorescence (AID 2394)
[4] = target: Female germline-specific tumor suppressor gld-1 (Caenorhabditis elegans, UniProt Q17339); assay: inhibitors of GLD-1 binding to TGE RNA, dose response, biochemical, fluorescence polarization, C. elegans (AID 2802);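 further: fluorescence polarization of labeled TGE RNA bound by purified gld-1 protein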
[5] = target: T2, Sentrin-specific protease 8 (Homo sapiens, UniProt Q96LD8); assay: SENP8 protease inhibitors, SAR follow-up, biochemical, luminescence (AID 504501); type: functional
T2 sequence (Q96LD8 whole entry): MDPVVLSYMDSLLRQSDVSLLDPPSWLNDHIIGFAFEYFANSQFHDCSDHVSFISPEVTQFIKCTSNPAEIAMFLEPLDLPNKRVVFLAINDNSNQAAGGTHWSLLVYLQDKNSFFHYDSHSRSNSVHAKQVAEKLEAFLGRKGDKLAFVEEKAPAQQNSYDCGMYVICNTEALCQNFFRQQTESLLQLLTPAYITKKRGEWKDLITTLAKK

[6] = target: Polyadenylate-binding protein 1 (Homo sapiens, UniProt P11940); assay: PABP1 MLLE–PAM2 binding inhibitor potency, dose response, biochemical, fluorescence polarization, FITC-PAM2 peptide (AID 602259); type: functional; details: read-out: IC50_Mean
BJ [7] = assay: cytotoxicity toward BJ-TERT fibroblasts, dose response, cell-based, RAS-independent, luminescence (AID 1933); type: functional; details: Homo sapiens
[8] = cytotoxicity toward DRD oncogenic fibroblasts, dose response, cell-based, non-viral oncogenic, luminescence (AID 1934); type: functional; details: Homo sapiens
[9] = cytotoxicity in HEK-293T cells, dose response, cytotoxicity control for TCR NF-kB inhibitor project, luminescence, T-cell screen hits (AID 489026); type: functional, cell-based;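 further: cells exposed to compound about 14 hours before the viability readout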
Nonstructural protein 1 = Nonstructural protein 1 (Influenza A virus, UniProt Q194T2); type: functional, Influenza A virus (A/California/07/2009(H1N1))
BJ [10] = assay: cytotoxicity toward Ras-transformed BJeLR fibroblasts, dose response, cell-based, alamar blue fluorescence, cherrypicked samples (AID 2631); type: functional; details: Homo sapiens;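 further: confirmatory dose-response assay in RAS-dependent BJ fibroblasts engineered with TERT, LT and ST, with cytotoxicity read by fluorescence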
[11] = HeLa cell cytotoxicity, dose response, cytotoxicity control for MgcRacGAP inhibitor project (AID 624300); type: functional
Paired box protein Pax-8 = Paired box protein Pax-8 (Homo sapiens, UniProt Q06710); assay: inhibitors of PAX8-driven TPO luciferase reporter, dose response, RMG-I cells, cherry-pick (AID 687027); type: functional, cell-based;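 further: luciferase reporter driven by Pax8 target thyroperoxidase promoter measured by SteadyGlo luminescence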
[12] = Luminescence Cell-Based Dose Retest to Confirm Inhibitors of Cancer Stem Cells. [Related pubchem assays (depositor defined):AID2717, AID2721]; type: functional; details: Homo sapiens
Vero = Vero cell cytotoxicity, cytotoxicity control for flavivirus capping enzyme inhibitors (AID 588742); type: functional; details: Chlorocebus sabaeus
[13] = target: T3, Histone-lysine N-methyltransferase NSD2 (Homo sapiens, UniProt O96028); type: biochemical
T3 sequence (O96028 whole entry): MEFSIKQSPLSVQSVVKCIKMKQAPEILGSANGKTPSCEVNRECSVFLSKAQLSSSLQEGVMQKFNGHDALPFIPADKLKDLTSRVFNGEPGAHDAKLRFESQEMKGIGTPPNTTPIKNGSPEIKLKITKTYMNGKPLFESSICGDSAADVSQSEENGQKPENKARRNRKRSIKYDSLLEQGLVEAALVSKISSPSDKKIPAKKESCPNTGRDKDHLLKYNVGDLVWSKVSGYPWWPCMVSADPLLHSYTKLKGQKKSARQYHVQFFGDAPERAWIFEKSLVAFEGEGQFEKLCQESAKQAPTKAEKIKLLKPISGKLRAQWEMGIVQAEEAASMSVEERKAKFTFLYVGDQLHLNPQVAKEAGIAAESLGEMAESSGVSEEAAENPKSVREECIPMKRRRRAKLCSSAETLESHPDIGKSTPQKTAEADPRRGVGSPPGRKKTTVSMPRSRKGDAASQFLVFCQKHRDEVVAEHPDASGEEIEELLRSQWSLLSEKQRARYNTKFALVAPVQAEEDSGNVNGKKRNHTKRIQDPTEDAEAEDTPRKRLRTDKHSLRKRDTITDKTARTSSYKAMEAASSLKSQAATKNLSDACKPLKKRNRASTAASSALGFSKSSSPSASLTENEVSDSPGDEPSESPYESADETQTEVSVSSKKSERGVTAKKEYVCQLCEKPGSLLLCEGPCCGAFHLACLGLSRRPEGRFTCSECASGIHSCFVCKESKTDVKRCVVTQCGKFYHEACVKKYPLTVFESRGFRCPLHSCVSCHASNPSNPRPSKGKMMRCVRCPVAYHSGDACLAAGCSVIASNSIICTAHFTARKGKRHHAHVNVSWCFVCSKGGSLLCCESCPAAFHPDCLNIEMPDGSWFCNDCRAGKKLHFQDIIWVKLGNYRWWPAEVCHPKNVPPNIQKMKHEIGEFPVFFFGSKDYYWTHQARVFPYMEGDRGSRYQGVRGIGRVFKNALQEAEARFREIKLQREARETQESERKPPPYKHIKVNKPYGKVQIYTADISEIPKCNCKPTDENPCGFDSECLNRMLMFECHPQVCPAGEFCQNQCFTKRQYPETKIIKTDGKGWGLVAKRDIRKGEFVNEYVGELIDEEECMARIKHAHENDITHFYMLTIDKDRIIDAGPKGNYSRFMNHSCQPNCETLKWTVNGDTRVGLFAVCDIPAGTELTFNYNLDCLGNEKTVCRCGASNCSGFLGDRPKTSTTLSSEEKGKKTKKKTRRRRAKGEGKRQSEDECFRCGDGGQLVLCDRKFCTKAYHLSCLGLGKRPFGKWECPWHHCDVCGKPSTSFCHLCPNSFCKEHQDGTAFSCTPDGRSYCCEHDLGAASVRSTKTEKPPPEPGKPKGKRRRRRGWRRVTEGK

Polyadenylate-binding protein 1, sequence (P11940 whole entry): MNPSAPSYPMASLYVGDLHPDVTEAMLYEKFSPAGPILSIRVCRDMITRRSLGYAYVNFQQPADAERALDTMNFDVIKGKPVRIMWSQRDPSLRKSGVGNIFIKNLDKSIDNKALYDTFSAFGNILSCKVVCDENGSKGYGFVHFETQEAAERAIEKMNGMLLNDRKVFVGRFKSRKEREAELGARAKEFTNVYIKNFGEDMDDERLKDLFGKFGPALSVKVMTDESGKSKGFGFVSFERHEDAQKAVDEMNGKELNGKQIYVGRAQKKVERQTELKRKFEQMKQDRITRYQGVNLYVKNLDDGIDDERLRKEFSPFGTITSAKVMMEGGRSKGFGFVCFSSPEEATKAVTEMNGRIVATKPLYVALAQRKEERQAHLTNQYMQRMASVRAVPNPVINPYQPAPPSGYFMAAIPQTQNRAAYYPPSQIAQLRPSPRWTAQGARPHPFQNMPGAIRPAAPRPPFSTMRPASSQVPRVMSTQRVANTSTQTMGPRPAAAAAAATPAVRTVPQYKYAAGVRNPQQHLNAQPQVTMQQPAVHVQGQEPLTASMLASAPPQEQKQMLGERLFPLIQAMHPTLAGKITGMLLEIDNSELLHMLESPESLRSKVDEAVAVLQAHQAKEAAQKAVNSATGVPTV
Protein Rev, sequence (P04618 whole entry): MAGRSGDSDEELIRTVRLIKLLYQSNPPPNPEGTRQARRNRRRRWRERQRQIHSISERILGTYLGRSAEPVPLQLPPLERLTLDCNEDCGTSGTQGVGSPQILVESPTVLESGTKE
Paired box protein Pax-8, sequence (Q06710 whole entry): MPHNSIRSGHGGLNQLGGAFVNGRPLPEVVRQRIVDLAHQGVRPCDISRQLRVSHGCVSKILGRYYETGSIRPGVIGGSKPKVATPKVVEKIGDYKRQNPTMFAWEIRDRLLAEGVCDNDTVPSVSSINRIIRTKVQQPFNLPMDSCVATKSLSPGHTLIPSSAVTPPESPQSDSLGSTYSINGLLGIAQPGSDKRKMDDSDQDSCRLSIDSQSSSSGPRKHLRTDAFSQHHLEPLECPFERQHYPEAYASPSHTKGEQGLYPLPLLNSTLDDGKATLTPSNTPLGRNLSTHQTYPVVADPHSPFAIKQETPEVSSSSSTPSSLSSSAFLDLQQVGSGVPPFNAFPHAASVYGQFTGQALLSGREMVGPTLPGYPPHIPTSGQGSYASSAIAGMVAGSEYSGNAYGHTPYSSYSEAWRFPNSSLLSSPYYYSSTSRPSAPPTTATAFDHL
Serine/threonine-protein phosphatase PP1-alpha catalytic subunit, sequence (P62136 whole entry): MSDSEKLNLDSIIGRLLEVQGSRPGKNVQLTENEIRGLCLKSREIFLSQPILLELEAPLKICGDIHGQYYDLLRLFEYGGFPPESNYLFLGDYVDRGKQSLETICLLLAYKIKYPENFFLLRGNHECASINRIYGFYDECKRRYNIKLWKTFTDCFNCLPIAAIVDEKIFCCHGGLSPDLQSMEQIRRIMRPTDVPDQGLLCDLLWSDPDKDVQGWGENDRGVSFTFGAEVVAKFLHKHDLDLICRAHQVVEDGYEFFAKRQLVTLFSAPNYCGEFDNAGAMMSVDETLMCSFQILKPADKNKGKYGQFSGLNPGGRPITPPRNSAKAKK
Female germline-specific tumor suppressor gld-1, sequence (Q17339 whole entry): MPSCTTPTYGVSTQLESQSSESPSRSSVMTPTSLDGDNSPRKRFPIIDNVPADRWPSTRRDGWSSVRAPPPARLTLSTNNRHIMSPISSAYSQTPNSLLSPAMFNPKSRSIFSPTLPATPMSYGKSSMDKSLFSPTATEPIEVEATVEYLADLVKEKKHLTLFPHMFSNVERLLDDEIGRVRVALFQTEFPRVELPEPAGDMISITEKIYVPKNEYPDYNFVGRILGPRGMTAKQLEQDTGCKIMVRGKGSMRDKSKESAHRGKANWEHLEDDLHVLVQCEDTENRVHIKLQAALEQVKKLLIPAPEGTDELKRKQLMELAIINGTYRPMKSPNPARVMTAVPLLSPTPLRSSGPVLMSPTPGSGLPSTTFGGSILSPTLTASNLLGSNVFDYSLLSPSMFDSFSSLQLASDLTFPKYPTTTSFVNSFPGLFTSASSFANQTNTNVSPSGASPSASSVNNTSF
Nonstructural protein 1, sequence (Q194T2 whole entry): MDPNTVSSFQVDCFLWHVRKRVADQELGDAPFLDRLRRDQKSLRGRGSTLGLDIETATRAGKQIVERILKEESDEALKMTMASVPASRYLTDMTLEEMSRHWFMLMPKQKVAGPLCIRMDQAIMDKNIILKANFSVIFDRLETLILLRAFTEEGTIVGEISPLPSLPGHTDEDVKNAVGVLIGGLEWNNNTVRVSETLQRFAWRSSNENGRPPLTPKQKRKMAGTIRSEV

## Cc1cccc(C)c1-n1cccc1/C=C1\SC(=S)N(c2cccc(C(=O)O)c2)C1=O
[1]
  EC50: 2.07 µM (active)
[2]
  IC50: 7.27 µM (not active)
Streptococcus
  EC50: 8.78 µM (active)

## Oc1ccc(/C=N/Nc2cc(N3CCCC3)nc(N3CCCC3)n2)cc1
Protein Rev
  IC50: 1.36 µM (active)
[3]
  IC50: > 67 µM (not active)
[4]
  IC50: 2.75 µM (active)
[5]
  IC50: > 99 µM (inactive)
[6]
  IC50: 34.4 µM (inactive)

## COc1ccc(S(=O)(=O)/N=C2\C=C(Nc3ccc(O)cc3)C(=O)c3ccccc32)cc1
BJ [7]
  EC50: 1.53 µM (active)
[8]
  EC50: 2.89 µM (active)
[9]
  IC50: 4.19 µM (active)
Nonstructural protein 1
  IC50: 8.09 µM (active)
BJ [10]
  EC50: 0.507 µM (inconclusive)
[11]
  CC50: 2.15 µM (active)
Paired box protein Pax-8
  AC50: 1.86 µM (active)

## COc1ccc(/C=N/Nc2cc(N3CCCC3)nc(N3CCCC3)n2)cc1
[12]
  AC50: 3.71 µM (active)
Vero
  CC50: 24.7 µM (active)
[13]
  AC50: 2.01 µM (active)
